Legend:
Type in all cases: ADME, organism-based
Mus musculus [1] = assay: Biodistribution in remaining body parts of ddY mouse at 5.6 +/- 2.1 MBq, iv measured per gram of tissue at 45 mins by gamma-ray counting analysis; conditions: in vivo, 0.75 h
Thyroid gland [2] = assay: Biodistribution in thyroid of ddY mouse at 5.6 +/- 2.1 MBq, iv measured per gram of tissue at 30 mins by gamma-ray counting analysis; conditions: in vivo, 0.5 h
Liver [3] = assay: Biodistribution in liver of ddY mouse at 14.6 +/- 2.1 MBq, iv measured per gram of tissue at 27.5 mins by PET image analysis; conditions: in vivo
Mus musculus [4] = assay: Biodistribution in remaining body parts of ddY mouse at 14.6 +/- 2.1 MBq, iv measured per gram of tissue at 14 mins by PET image analysis; conditions: in vivo
[5] = Drug uptake in urinary bladder of ddY mouse at 127 +/- 35 MBq/kg, iv measured up to 4.5 mins by microPET image analysis in presence of MATE1 inhibitor pyrimethamine; conditions: in vivo, 0.075 h
Mus musculus [6] = assay: Biodistribution in heart wall of ddY mouse at 5.6 +/- 2.1 MBq, iv measured per gram of tissue at 90 mins by gamma-ray counting analysis; conditions: in vivo, 1.5 h
Mus musculus [7] = assay: Biodistribution in remaining body parts of ddY mouse at 5.6 +/- 2.1 MBq, iv measured per gram of tissue at 15 mins by gamma-ray counting analysis; conditions: in vivo, 0.25 h
Mus musculus [8] = assay: Biodistribution in large intestine wall of ddY mouse at 5.6 +/- 2.1 MBq, iv measured per gram of tissue at 90 mins by gamma-ray counting analysis; conditions: in vivo, 1.5 h
Kidney [9] = assay: Biodistribution in kidney of ddY mouse at 5.6 +/- 2.1 MBq, iv measured per gram of tissue at 60 mins by gamma-ray counting analysis; conditions: in vivo, 1 h
Liver [10] = assay: Biodistribution in liver of ddY mouse at 5.6 +/- 2.1 MBq, iv measured per gram of tissue at 15 mins by gamma-ray counting analysis; conditions: in vivo, 0.25 h
Mus musculus [11] = assay: Biodistribution in urinary bladder/urine of ddY mouse at 5.6 +/- 2.1 MBq, iv measured per gram of tissue at 90 mins by gamma-ray counting analysis; conditions: in vivo, 1.5 h
Mus musculus [12] = assay: Biodistribution in stomach wall of ddY mouse at 5.6 +/- 2.1 MBq, iv measured per gram of tissue at 90 mins by gamma-ray counting analysis; conditions: in vivo, 1.5 h
Liver [13] = assay: Biodistribution in liver of ddY mouse at 5.6 +/- 2.1 MBq, iv measured per gram of tissue at 60 mins by gamma-ray counting analysis; conditions: in vivo, 1 h
[14] = Drug uptake in urinary bladder of ddY mouse at 127 +/- 35 MBq/kg, iv measured up to 4.5 mins by microPET image analysis; conditions: in vivo, 0.075 h
Mus musculus [15] = assay: Biodistribution in remaining body parts of ddY mouse at 5.6 +/- 2.1 MBq, iv measured per gram of tissue at 90 mins by gamma-ray counting analysis; conditions: in vivo, 1.5 h
Thyroid gland [16] = assay: Biodistribution in thyroid of ddY mouse at 5.6 +/- 2.1 MBq, iv measured per gram of tissue at 35 mins by gamma-ray counting analysis; conditions: in vivo
Lung [17] = assay: Biodistribution in lung of ddY mouse at 5.6 +/- 2.1 MBq, iv measured per gram of tissue at 45 mins by gamma-ray counting analysis; conditions: in vivo, 0.75 h
Kidney [18] = assay: Biodistribution in kidney of ddY mouse at 5.6 +/- 2.1 MBq, iv measured per gram of tissue at 30 mins by gamma-ray counting analysis; conditions: in vivo, 0.5 h
Liver [19] = assay: Biodistribution in liver of ddY mouse at 14.6 +/- 2.1 MBq, iv measured per gram of tissue at 5 mins by PET image analysis; conditions: in vivo
Mus musculus [20] = assay: Biodistribution in urinary bladder/urine of ddY mouse at 5.6 +/- 2.1 MBq, iv measured per gram of tissue at 45 mins by gamma-ray counting analysis; conditions: in vivo, 0.75 h
Lung [21] = assay: Biodistribution in lung of ddY mouse at 5.6 +/- 2.1 MBq, iv measured per gram of tissue at 30 mins by gamma-ray counting analysis; conditions: in vivo, 0.5 h
Spleen [22] = assay: Biodistribution in spleen of ddY mouse at 5.6 +/- 2.1 MBq, iv measured per gram of tissue at 60 mins by gamma-ray counting analysis; conditions: in vivo, 1 h
Liver [23] = assay: Metabolic stability in liver of mouse at 5 +/- 2.3 MBq/kg, iv measured until 30 to 60 mins by HPLC analysis in presence of MATE1 inhibitor pyrimethamine; conditions: in vivo
Mus musculus [24] = assay: Biodistribution in urinary bladder of ddY mouse at 14.6 +/- 2.1 MBq, iv measured per gram of tissue at 27.5 mins by PET image analysis; conditions: in vivo
Spleen [25] = assay: Biodistribution in spleen of ddY mouse at 5.6 +/- 2.1 MBq, iv measured per gram of tissue at 45 mins by gamma-ray counting analysis; conditions: in vivo, 0.75 h
Mus musculus [26] = assay: Biodistribution in remaining body parts of ddY mouse at 14.6 +/- 2.1 MBq, iv measured per gram of tissue at 5 mins by PET image analysis; conditions: in vivo
Kidney [27] = assay: Biodistribution in kidney of ddY mouse at 5.6 +/- 2.1 MBq, iv measured per gram of tissue at 45 mins by gamma-ray counting analysis; conditions: in vivo, 0.75 h
Mus musculus [28] = assay: Biodistribution in small intestine wall of ddY mouse at 5.6 +/- 2.1 MBq, iv measured per gram of tissue at 15 mins by gamma-ray counting analysis; conditions: in vivo, 0.25 h
Liver [29] = assay: Drug uptake in liver of ddY mouse at 127 +/- 35 MBq/kg, iv after 2 mins by microPET image analysis; conditions: in vivo
Thyroid gland [30] = assay: Biodistribution in thyroid of ddY mouse at 5.6 +/- 2.1 MBq, iv measured per gram of tissue at 15 mins by gamma-ray counting analysis; conditions: in vivo, 0.25 h
Kidney [31] = assay: Biodistribution in kidney of ddY mouse at 5.6 +/- 2.1 MBq, iv measured per gram of tissue at 35 mins by gamma-ray counting analysis; conditions: in vivo
Mus musculus [32] = assay: Biodistribution in small intestine wall of ddY mouse at 5.6 +/- 2.1 MBq, iv measured per gram of tissue at 30 mins by gamma-ray counting analysis; conditions: in vivo, 0.5 h
Blood = assay: Metabolic stability in blood of mouse at 5 +/- 2.3 MBq/kg, iv measured until 30 to 60 mins by HPLC analysis in presence of MATE1 inhibitor pyrimethamine; conditions: in vivo
Kidney [33] = assay: Drug uptake in kidney of ddY mouse at 127 +/- 35 MBq/kg, iv measured up to 4.5 mins by microPET image analysis; conditions: in vivo, 0.075 h
Mus musculus [34] = assay: Biodistribution in urinary bladder/urine of ddY mouse at 5.6 +/- 2.1 MBq, iv measured per gram of tissue at 60 mins by gamma-ray counting analysis; conditions: in vivo, 1 h
Mus musculus [35] = assay: Biodistribution in large intestine wall of ddY mouse at 5.6 +/- 2.1 MBq, iv measured per gram of tissue at 45 mins by gamma-ray counting analysis; conditions: in vivo, 0.75 h
Mus musculus [36] = assay: Biodistribution in urinary bladder/urine of ddY mouse at 5.6 +/- 2.1 MBq, iv measured per gram of tissue at 35 mins by gamma-ray counting analysis; conditions: in vivo

CN([11CH3])C(=N)NC(=N)N
Drug uptake (Mus musculus [1]): 17.28 %ID
Drug uptake (Thyroid gland [2]): 0.009 %ID
Drug uptake (Liver [3]): 1.033 %ID
Drug uptake (Mus musculus [4]): 36.878 %ID
Drug uptake [5]: Active
Drug uptake (Mus musculus [6]): 0.041 %ID
Drug uptake (Mus musculus [7]): 54.581 %ID
Drug uptake (Mus musculus [8]): 0.24 %ID
Drug uptake (Kidney [9]): 1.068 %ID
Drug uptake (Liver [10]): 3.817 %ID
Drug uptake (Mus musculus [11]): 59.056 %ID
Drug uptake (Mus musculus [12]): 0.14 %ID
Drug uptake (Liver [13]): 1.631 %ID
Drug uptake [14]: Active
Drug uptake (Mus musculus [15]): 36.827 %ID
Drug uptake (Thyroid gland [16]): 0.003 %ID
Drug uptake (Lung [17]): 0.135 %ID
Drug uptake (Kidney [18]): 1.111 %ID
Drug uptake (Liver [19]): 4.327 %ID
Drug uptake (Mus musculus [20]): 78.906 %ID
Drug uptake (Lung [21]): 0.218 %ID
Drug uptake (Spleen [22]): 0.139 %ID
Stability (Liver [23]): Stable
Drug uptake (Mus musculus [24]): 66.041 %ID
Drug uptake (Spleen [25]): 0.123 %ID
Drug uptake (Mus musculus [26]): 51.908 %ID
Drug uptake (Kidney [27]): 0.165 %ID
Drug uptake (Mus musculus [28]): 3.409 %ID
Drug uptake (Liver [29]): Not Active
Drug uptake (Thyroid gland [30]): 0.008 %ID
Drug uptake (Kidney [31]): 0.274 %ID
Drug uptake (Mus musculus [32]): 3.165 %ID
Stability (Blood): Stable
Drug uptake (Kidney [33]): Active
Drug uptake (Mus musculus [34]): 69.767 %ID
Drug uptake (Mus musculus [35]): 0.208 %ID
Drug uptake (Mus musculus [36]): 74.695 %ID

Source: ChEMBL document CHEMBL3091293, “The synthesis and biodistribution of [(11)C]metformin as a PET probe to study hepatobiliary transport mediated by the multi-drug and toxin extrusion transporter 1 (MATE1) in vivo” (Bioorg Med Chem, 2013)
